# Experimental data taken from patent publication US20150309047A1, “CIRCULATING PROTEOLYTIC BIOMARKERS OF CELL DEATH AND METHODS FOR THE USE THEREOF” (The Regents of the University of California, priority 2014, published 2015).
# Residues, ends and D or L forms follow the SMILES beside them. *: point of attachment. Cbz = O=C(OCc1ccccc1)*; CH2F = FC*
# Legend:
# Format in all cases: cell-based, human
# SU-DHL-8 = assay: N-terminal labeling and MS of proteolytic fragments released into media from drug-treated cultured cells; conditions: SU-DHL-8 treated with doxorubicin for at least 21 h
# Description: (§1) MM1.S and SU-DHL-8 lines were obtained from ATCC; MOLM-13 from DMSZ. Cell lines were grown in RPMI-1640 media without fetal bovine serum for 24 h prior to drug treatment at indicated doses. After treatment, cells and debris were separated from media by low speed (800×g, 5 min), followed by high speed (24,000×g, 1 h) centrifugation. Total protein in media was precipitated with trichloroacetic acid, resuspended in 8M guanidine HCl, then subjected to N-terminal labeling as described (Wiita A P, et al. (2013) Global cellular response to chemotherapy-induced apoptosis. Elife 2:e01236).
# (§2) Three cell lines treated with different drugs were evaluated: i) MM1.S, derived from multiple myeloma and treated with the proteasome inhibitor bortezomib, ii) MOLM-13, derived from acute myeloid leukemia and treated with the nucleoside analog cytarabine, and iii) SU-DHL-8, derived from diffuse large B-cell lymphoma and treated with the DNA-damaging agent doxorubicin. All of these conditions reflect the diagnoses of patients in the discovery cohort combined with clinically used chemotherapeutics. Under each condition the cells were either treated with drug or mock-treated for at least 21 h. […] After removing whole cells, proteins in the media were precipitated with trichloroacetic acid and then subjected to N-terminal labeling by subtiligase. FBS-free media was used in these experiments to avoid contamination from normal bovine plasma proteins.
# Jurkat cells [1] = assay: Immunoblotting of caspase substrate proteolysis during apoptosis in Jurkat cells
# Description: Jurkat cells at a density of 1×10^6 cells/ml were treated with etoposide (50 μM) for 0, 2, 4, 8, 12, and 24 hours prior to harvesting. Harvested cells were pelleted at 2,000×g and 25° C. for 5 minutes, washed twice with phosphate buffered saline, and lysed at a concentration of 2×10^7 cells/ml in 1.0% SDS, phosphate buffered saline, 100 μM Z-VAD-FMK, 100 μM E-64, 1 mM PMSF, 1 mM AEBSF, 5 mM EDTA, and 10 mM sodium butyrate. Whole cell lysates were sonicated to shear genomic DNA, normalized to a protein concentration of approximately 2 mg/ml, as determined by BCA assay (Pierce). Cell lysates for each apoptotic timepoint were then analyzed by SDS-PAGE and Western blot. Mouse monoclonal anti-caspase-3 (#9668) and rabbit polyclonal anti-HDAC3 (#2632) antibodies were purchased from Cell Signaling Technology. Mouse monoclonal anti-DFF45 (#611036) antibody was purchased from BD Transduction Laboratories. Goat polyclonal anti-N-Cor (#sc-1611) and rabbit polyclonal anti-HDAC7 (#sc-11412) antibodies were purchased from Santa Cruz Biotechnology. Rabbit polyclonal anti-TBLR1 (#A300-408A), rabbit polyclonal anti-SHARP (#A301-119A), and rabbit polyclonal anti-RBBP7 (#A300-959A) antibodies were purchased from Bethyl Laboratories. Rabbit polyclonal anti-SMRTe (#06-891) antibody was purchased from Millipore. Western blots were imaged using SuperSignal West Femto Substrate (Pierce) with a FluorChem SP imager (Alpha Innotech). DNA fragmentation of whole cell DNA was analyzed by agarose gel with the Apoptotic DNA Ladder Kit (Roche).
# MM1.S = assay: N-terminal labeling and MS of proteolytic fragments released into media from drug-treated cultured cells; conditions: MM1.S treated with bortezomib for at least 21 h
# Description: as §1, §2
# MOLM-13 = assay: as above; conditions: MOLM-13 treated with cytarabine for at least 21 h
# Description: as §1, §2
# Jurkat cells [2] = assay: Subtiligase N-terminal labeling and LC/MS/MS degradomic analysis of etoposide-treated apoptotic Jurkat cells; conditions: Jurkat cells treated with etoposide
# Description: Jurkat clone E6-1 (ATCC) cells were grown in RPMI-1640 supplemented with 10% fetal bovine serum, sodium pyruvate, and antibiotics. Normal cells were harvested for experiments at a density of 1×10^6 cells/ml. For apoptotic samples, cells at a density of 1×10^6 cells/ml were treated with etoposide (50 μM) for 12 hours prior to harvesting. Harvested cells (0.1 to 1 billion) were pelleted at 2,000×g and 25° C. for 5 minutes, washed twice with phosphate buffered saline, and lysed at a typical concentration of 2×10^8 cells/ml in 1.0% Triton X-100, 100 mM BICINE pH 8.0, 100 μM Z-VAD-FMK, 100 μM E-64, 1 mM PMSF, 1 mM AEBSF, and 5 mM EDTA. Cell lysates were incubated at room temperature for 1 hour to allow complete inhibition of endogenous protease and esterase activity, and centrifuged at 21,000×g and 4° C. for 15 minutes to pellet insoluble material. Clarified supernatant was immediately used in ligation reactions at a protein concentration of approximately 20 mg/ml, as determined by Bradford assay (Bio-Rad).
# Subtiligase (1 μM), biotinylated peptide ester (1 mM), and DTT (2 mM) were added to either control or apoptotic cell lysate. Ligation reactions were typically left to proceed at room temperature for 60 minutes. […]
# [3] = Jurkat cells, 50 μM etoposide, immunoblot
structure (smiles),measurement,setting,value
COc1cccc2c1C(=O)c1c(O)c3c(c(O)c1C2=O)C[C@@](O)(C(=O)CO)C[C@@H]3O[C@H]1C[C@H](N)[C@H](O)[C@H](C)O1 [doxorubicin],apoptosis of treated cells,SU-DHL-8,at least 50%
COC(=O)C[C@H](NC(=O)[C@H](C)NC(=O)[C@@H](NC(=O)OCc1ccccc1)C(C)C)C(=O)CF [Z-VAD(OMe)-fmk] (Cbz-Val-Ala-Asp(OMe)-CH2F),"cleavage of representative substrates HDAC7, Ku80, RCOR2, TBLR1, and UBP36",Jurkat cells [1]; etoposide-treated Jurkat cells with caspase inhibitor,blocked
CC(C)C[C@H](NC(=O)[C@H](Cc1ccccc1)NC(=O)c1cnccn1)B(O)O [bortezomib],apoptosis of treated cells,MM1.S,at least 50%
Nc1ccn([C@@H]2O[C@H](CO)[C@@H](O)[C@@H]2O)c(=O)n1 [cytarabine],apoptosis of treated cells,MOLM-13,at least 50%
COc1cc([C@@H]2c3cc4c(cc3[C@@H](O[C@@H]3O[C@@H]5CO[C@@H](C)O[C@H]5[C@H](O)[C@H]3O)[C@H]3COC(=O)[C@H]23)OCO4)cc(OC)c1O [etoposide],"proteolysis of CM, Ku80, LCOR, and RBBP7 (time courses)",Jurkat cells [1]; [3],partial cleavage
same,"proteolysis of HDAC6, HDAC7, N-CoR, RCOR2, SHARP, TBLR1, UBPS, and UBP36 (time courses)",Jurkat cells [1]; [3],full cleavage
same,N-termini identified in apoptotic cells derived from P1 aspartate cleavages,Jurkat cells [2]; large-scale (2D LC/MS/MS) experiments,43%
same,N-termini identified in apoptotic cells derived from P1 aspartate cleavages,Jurkat cells [2]; small-scale (1D LC/MS/MS) experiments,43%
